Laboratory results as given in US11566007B2, “Ras inhibitors” (Revolution Medicines, Inc., priority 2019, dated 2023).

How the values were obtained:
Assay type in all cases: biochemical
[1] = molecular target: KRAS Q61H (Homo sapiens (Human), UniProt P01116+P62937, Q61H); assay: Ras-Raf (BRAF RBD) disruption / FRET / MOA assay, KRAS Q61H; conditions: Ras-Raf disruption/FRET/MOA assay; class symbols; read-out: KRAS Q61H FRET data IC50
Method in brief: (§1)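 Compounds (30 μM top final, 10-point 3-fold dilutions) incubated 3 h at 25° C with nucleotide-loaded Ras, cyclophilin A and BRAF RBD. Detection with 10 nM anti-His Eu-W1024 and 50 nM anti-GST allophycocyanin over another 1.5 h. Lowered TR-FRET ratio relative to DMSO wells gives IC50.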

[2] = molecular target: NRAS Q61K (Homo sapiens (Human), UniProt P01111+P62937, Q61K); assay: Ras-Raf (BRAF RBD) disruption / FRET / MOA assay, NRAS Q61K; conditions: NRAS Q61K; Ras-Raf disruption/FRET/MOA assay; read-out: IC50* NRAS Q61K FRET data
Method in brief: as §1

[3] = molecular target: K-Ras G13C (Homo sapiens (Human), UniProt P01116+P62937, G13C); assay: Ras-Raf (BRAF RBD) disruption / FRET / MOA assay, KRAS G13C; conditions: KRAS G13C; Ras-Raf disruption/FRET/MOA assay; read-out: IC50* KRAS G13C FRET data
Method in brief: (§2)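 Compound-driven ternary complex of nucleotide-loaded Ras with cyclophilin A, disrupting BRAF RBD binding. 10-point 3-fold dilution from 30 μM final, 3 h at 25° C, then anti-His Eu-W1024 (10 nM) and anti-GST allophycocyanin (50 nM) for 1.5 h. IC50 from TR-FRET ratio decrease versus DMSO.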

[4] = molecular target: KRAS WT (Homo sapiens (Human), UniProt P01116+P62937); assay: Ras-Raf (BRAF RBD) disruption / FRET / MOA assay, KRAS WT; conditions: read-out: IC50* KRAS WT FRET data
Method in brief: as §2

[5] = molecular target: KRAS G13D (Homo sapiens (Human), UniProt P01116+P62937, G13D); assay: Ras-Raf (BRAF RBD) disruption / FRET / MOA assay, KRAS G13D; conditions: read-out: IC50* KRAS G13D FRET data
Method in brief: as §2

[6] = molecular target: KRAS G12D (Homo sapiens (Human), UniProt P01116+P62937, G12D); assay: Ras-Raf (BRAF RBD) disruption / FRET / MOA assay, KRAS G12D; conditions: Ras-Raf disruption/FRET/MOA assay; class symbols; read-out: KRAS G12D FRET data IC50
Method in brief: as §2

[7] = molecular target: KRAS G12S (Homo sapiens (Human), UniProt P01116+P62937, G12S); assay: Ras-Raf (BRAF RBD) disruption / FRET / MOA assay, KRAS G12S; conditions: Ras-Raf disruption/FRET/MOA assay; class symbols; read-out: KRAS G12S FRET data IC50
Method in brief: as §2

Sequence of KRAS WT (P01116-2 other isoform, or with tags, fused parts or gaps): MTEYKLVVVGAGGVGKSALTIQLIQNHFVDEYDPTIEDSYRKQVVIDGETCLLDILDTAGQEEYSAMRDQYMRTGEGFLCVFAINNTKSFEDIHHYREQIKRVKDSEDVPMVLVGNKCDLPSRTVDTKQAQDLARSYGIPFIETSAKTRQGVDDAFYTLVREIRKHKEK
Sequence of KRAS WT (P62937 whole entry): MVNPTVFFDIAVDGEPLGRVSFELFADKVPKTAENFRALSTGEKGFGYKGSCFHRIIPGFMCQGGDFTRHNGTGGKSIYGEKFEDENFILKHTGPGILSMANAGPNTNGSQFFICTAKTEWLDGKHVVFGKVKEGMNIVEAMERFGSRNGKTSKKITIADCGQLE
Sequence of K-Ras G13C (P01116-2 other isoform, or with tags, fused parts or gaps G13C): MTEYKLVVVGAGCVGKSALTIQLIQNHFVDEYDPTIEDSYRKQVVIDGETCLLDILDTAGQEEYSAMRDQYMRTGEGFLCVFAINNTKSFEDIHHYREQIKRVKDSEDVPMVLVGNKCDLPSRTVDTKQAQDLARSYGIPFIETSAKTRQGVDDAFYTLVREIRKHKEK
Sequence of K-Ras G13C (P62937 whole entry): as the sequence (P62937 whole entry) above
Sequence of KRAS G12S (P01116-2 other isoform, or with tags, fused parts or gaps G12S): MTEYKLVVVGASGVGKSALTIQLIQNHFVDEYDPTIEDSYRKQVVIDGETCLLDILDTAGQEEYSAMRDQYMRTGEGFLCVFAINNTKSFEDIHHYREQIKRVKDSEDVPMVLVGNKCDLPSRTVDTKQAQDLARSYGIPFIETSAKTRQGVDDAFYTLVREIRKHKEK
Sequence of KRAS G12S (P62937 whole entry): as the sequence (P62937 whole entry) above
Sequence of NRAS Q61K (P01111 whole entry Q61K): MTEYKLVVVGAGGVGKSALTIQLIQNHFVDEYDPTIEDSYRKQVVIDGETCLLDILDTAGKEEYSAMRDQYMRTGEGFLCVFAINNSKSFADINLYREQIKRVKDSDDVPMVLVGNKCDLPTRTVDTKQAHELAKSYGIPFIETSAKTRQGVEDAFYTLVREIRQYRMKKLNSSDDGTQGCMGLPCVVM
Sequence of NRAS Q61K (P62937 whole entry): as the sequence (P62937 whole entry) above
Sequence of KRAS G12D (P01116-2 other isoform, or with tags, fused parts or gaps G12D): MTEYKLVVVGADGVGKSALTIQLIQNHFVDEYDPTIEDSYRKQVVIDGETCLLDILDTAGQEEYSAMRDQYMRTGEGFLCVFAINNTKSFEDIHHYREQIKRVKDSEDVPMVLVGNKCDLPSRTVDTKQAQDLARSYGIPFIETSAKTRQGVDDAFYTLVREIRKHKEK
Sequence of KRAS G12D (P62937 whole entry): as the sequence (P62937 whole entry) above
Sequence of KRAS G13D (P01116-2 other isoform, or with tags, fused parts or gaps G13D): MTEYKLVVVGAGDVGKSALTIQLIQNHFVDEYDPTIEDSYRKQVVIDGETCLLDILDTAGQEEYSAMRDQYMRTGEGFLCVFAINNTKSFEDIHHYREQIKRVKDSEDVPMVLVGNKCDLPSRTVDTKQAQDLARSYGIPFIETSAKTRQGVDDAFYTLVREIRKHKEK
Sequence of KRAS G13D (P62937 whole entry): as the sequence (P62937 whole entry) above
Sequence of KRAS Q61H (P01116-2 other isoform, or with tags, fused parts or gaps Q61H): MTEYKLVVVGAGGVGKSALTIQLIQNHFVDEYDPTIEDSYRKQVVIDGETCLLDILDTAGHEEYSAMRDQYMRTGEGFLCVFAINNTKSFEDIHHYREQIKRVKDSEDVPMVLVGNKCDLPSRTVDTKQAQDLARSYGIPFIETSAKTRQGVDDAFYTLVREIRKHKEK
Sequence of KRAS Q61H (P62937 whole entry): as the sequence (P62937 whole entry) above

Structure (SMILES)	IC50 [1] [nM]	IC50 [2] [nM]	IC50 [3] [nM]	IC50 [4] [nM]	IC50 [5] [nM]	IC50 [6] [nM]	IC50 [7] [nM]
CCn1c(-c2cccnc2[C@H](C)OC)c2c3cc(ccc31)C1=CCCN(C1)C[C@H](NC(=O)[C@@H](COC1CN(C(=O)C#CC(C)(C)N(C)C)C1)C(C)C)C(=O)N1CCC[C@H](N1)C(=O)OCC(C)(C)C2 (atropisomer, axis not shown) [Example A663, (2R)-2-(((1-(4-(dimethylamino)-4-methylpent-2-ynoyl)405yridine405-3-yl)oxy)methyl)-N-((6^3S,4S)-1^1-ethyl-1^2-(2-((S)-1-methoxyethyl)405yridine-3-yl)-10,10-dimethyl-5,7-dioxo-2^1,2^2,2^3,2^6,6^1,6^2,6^3,6^4,6^5,6^6-decahydro-1^1H-8-oxa-1(5,3)-indola-6(1,3)-pyridazina-2(5,1)-pyridinacycloundecaphane-4-yl)-3-methylbutanamide]	> 10000	> 10000	1000 to 10000	> 10000	> 10000	> 10000	> 10000
CCn1c(-c2cccnc2[C@H](C)OC)c2c3cc(ccc31)-c1csc(n1)C[C@H](NC(=O)[C@H](C(C)C)N(C)C(=O)N1CCN(C(=O)/C=C/CN3CCOCC3)C3(CC3)C1)C(=O)N1CCC[C@H](N1)C(=O)OCC(C)(C)C2 (atropisomer, axis not shown) [Example A665]	10 to 100	10 to 100	100 to 1000	10 to 100	100 to 1000	100 to 1000	10 to 100
CCn1c(-c2cccnc2[C@H](C)OC)c2c3cc(ccc31)-c1csc(n1)C[C@H](NC(=O)[C@H](C(C)C)N(C)C(=O)N1CCC3(CC1)CN(C(=O)/C=C/CN1CCOCC1)C3)C(=O)N1CCC[C@H](N1)C(=O)OCC(C)(C)C2 (atropisomer, axis not shown) [Example A669]	10 to 100	10 to 100	100 to 1000	100 to 1000	100 to 1000	100 to 1000	100 to 1000
CCn1c(-c2cccnc2[C@H](C)OC)c2c3cc(ccc31)-c1csc(n1)C[C@H](NC(=O)[C@H](C(C)C)N(C)C(=O)N1CCC3(CC1)CN(C(=O)/C=C/CN1CCCCC1)C3)C(=O)N1CCC[C@H](N1)C(=O)OCC(C)(C)C2 (atropisomer, axis not shown) [Example A670]	100 to 1000	100 to 1000	100 to 1000	100 to 1000	100 to 1000	1000 to 10000	100 to 1000
C/C=C/C(=O)N1CC2(CCN(C(=O)N(C)[C@H](C(=O)N[C@H]3Cc4nc(cs4)-c4ccc5c(c4)c(c(-c4cccnc4[C@H](C)OC)n5CC)CC(C)(C)COC(=O)[C@@H]4CCCN(N4)C3=O)C(C)C)CC2)C1 (atropisomer, axis not shown) [Example A671]	10 to 100	10 to 100	100 to 1000	100 to 1000	100 to 1000	100 to 1000	100 to 1000
CCn1c(-c2cccnc2[C@H](C)OC)c2c3cc(ccc31)-c1nc(co1)C[C@H](NC(=O)[C@@H](COC1CN(C(=O)C#CC(C)(C)N(C)C)C1)C(C)C)C(=O)N1CCC[C@H](N1)C(=O)OCC(C)(C)C2 (atropisomer, axis not shown) [Example A675, (2R)-2-(((1-(4-(dimethylamino)-4-methylpent-2-ynoyl)azetidin-3-yl)oxy)methyl)-N-((6^3S,4S,Z)-1^1-ethyl-1^2-(2-((S)-1-methoxyethyl)pyridin-3-yl)-10,10-dimethyl-5,7-dioxo-6^1,6^2,6^3,6^4,6^5,6^6-hexahydro-1^1H-8-oxa-2(2,4)-oxazola-1(5,3)-indola-6(1,3)-pyridazinacycloundecaphane-4-yl)-3-methylbutanamide]	> 10000	> 10000	> 10000	> 10000	> 10000	> 10000	> 10000
C=CC(=O)N1CCN(C(=O)N(C)[C@H](C(=O)N[C@H]2Cc3nc(cs3)-c3ccc4c(c3)c(c(-c3cccnc3[C@H](C)OC)n4CC(F)(F)F)CC(C)(C)COC(=O)[C@@H]3CCCN(N3)C2=O)C(C)C)CC12CC2 (atropisomer, axis not shown) [Example A679]	10 to 100	10 to 100	10 to 100	10 to 100	100 to 1000	100 to 1000	10 to 100
C=C(OC)C(=O)N1CC2(CCN(C(=O)N(C)[C@H](C(=O)N[C@H]3Cc4nc(cs4)-c4ccc5c(c4)c(c(-c4cccnc4[C@H](C)OC)n5CC)CC(C)(C)COC(=O)[C@@H]4CCCN(N4)C3=O)C(C)C)CC2)C1 (atropisomer, axis not shown) [Example A681]	10 to 100	10 to 100	100 to 1000	100 to 1000	100 to 1000	100 to 1000	100 to 1000
C=C(F)C(=O)N1CC2(CCN(C(=O)N(C)[C@H](C(=O)N[C@H]3Cc4nc(cs4)-c4ccc5c(c4)c(c(-c4cccnc4[C@H](C)OC)n5CC)CC(C)(C)COC(=O)[C@@H]4CCCN(N4)C3=O)C(C)C)CC2)C1 (atropisomer, axis not shown) [Example A682]	10 to 100	10 to 100	100 to 1000	100 to 1000	100 to 1000	100 to 1000	100 to 1000
C=CC(=O)N1CC2(CCN2C(=O)N(C)[C@H](C(=O)N[C@H]2Cc3cccc(c3)-c3ccc4c(c3)c(c(-c3cccnc3[C@H](C)OC)n4CC)CC(C)(C)COC(=O)[C@@H]3CCCN(N3)C2=O)C(C)C)C1 (atropisomer, axis not shown) [Example A684]	10 to 100	100 to 1000	100 to 1000	100 to 1000	100 to 1000	1000 to 10000	100 to 1000
C=CC(=O)N1C[C@H]2CN(C(=O)N(C)[C@H](C(=O)N[C@H]3Cc4nc(cs4)-c4ccc5c(c4)c(c(-c4cccnc4[C@H](C)OC)n5CC)CC(C)(C)COC(=O)[C@@H]4CCCN(N4)C3=O)C(C)C)[C@H]2C1 (atropisomer, axis not shown) [Example A686]	10 to 100	10 to 100	100 to 1000	100 to 1000	100 to 1000	1000 to 10000	100 to 1000
C=CC(=O)N1CC[C@H]2[C@@H](C1)CN2C(=O)N(C)[C@H](C(=O)N[C@H]1Cc2nc(cs2)-c2ccc3c(c2)c(c(-c2cccnc2[C@H](C)OC)n3CC)CC(C)(C)COC(=O)[C@@H]2CCCN(N2)C1=O)C(C)C (atropisomer, axis not shown) [Example A687]	10 to 100	10 to 100	100 to 1000	100 to 1000	100 to 1000	1000 to 10000	100 to 1000
CCn1c(-c2cccnc2[C@H](C)OC)c2c3cc(ccc31)-c1csc(n1)C[C@H](NC(=O)C[C@@H]1COC3(CN(C(=O)C#CC(C)(C)N(C)C)C3)O1)C(=O)N1CCC[C@H](N1)C(=O)OCC(C)(C)C2 (atropisomer, axis not shown) [Example A691]	1000 to 10000	1000 to 10000	1000 to 10000	1000 to 10000	1000 to 10000	1000 to 10000	1000 to 10000
CCn1c(-c2cccnc2[C@H](C)OC)c2c3cc(ccc31)-c1cnc(o1)C[C@H](NC(=O)[C@H](C(C)C)N(C)C(=O)[C@H]1CCN(C(=O)C#CC(C)(C)N(C)C)C1)C(=O)N1CCC[C@H](N1)C(=O)OCC(C)(C)C2 (atropisomer, axis not shown) [Example A692, (3S)-1-(4-(dimethylamino)-4-methylpent-2-ynoyl)-N-((2S)-1-(((6^3S,4S)-1^1-ethyl-1^2-(2-((S)-1-methoxyethyl)pyridin-3-yl)-10,10-dimethyl-5,7-dioxo-6^1,6^2,6^3,6^4,6^5,6^6-hexahydro-1^1H-8-oxa-2(5,2)-oxazola-1(5,3)-indola-6(1,3)-pyridazinacycloundecaphane-4-yl)amino)-3-methyl-1-oxobutan-2-yl)-N-methylpyrrolidine-3-carboxamide]	1000 to 10000	> 10000	100 to 1000	1000 to 10000	> 10000	> 10000	1000 to 10000
C=CC(=O)N1CCOC2(CCN(C(=O)N(C)[C@H](C(=O)N[C@H]3Cc4nc(cs4)-c4ccc5c(c4)c(c(-c4cccnc4[C@H](C)OC)n5CC)CC(C)(C)COC(=O)[C@@H]4CCCN(N4)C3=O)C(C)C)CC2)C1 (atropisomer, axis not shown) [Example A695]	100 to 1000	100 to 1000	10 to 100	100 to 1000	100 to 1000	1000 to 10000	100 to 1000
